Results on seven molecules are retold here after paper PMC5826802 (Analytical biochemistry, 2017).

Usually pIC50 stands for the negative decadic logarithm of the IC50, by convention in mol/L. A high value points to a small IC50. As a reminder, the IC50 is the concentration that gives 50% inhibition. Read a high IC50 as a need for much substance. The term Km denotes the substrate concentration at which the rate is half of its maximum.

Test [1] deals with T1, PARP15 (Homo sapiens, UniProt Q460N3).
T1 sequence (Q460N3 481-678): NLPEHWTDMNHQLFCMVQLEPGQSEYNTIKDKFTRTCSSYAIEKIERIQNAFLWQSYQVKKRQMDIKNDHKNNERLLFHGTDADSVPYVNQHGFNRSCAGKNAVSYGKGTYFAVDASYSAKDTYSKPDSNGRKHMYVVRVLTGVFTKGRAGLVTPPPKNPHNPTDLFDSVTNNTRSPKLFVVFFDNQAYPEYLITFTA
Put plainly: MLISA inhibition of PARP15-catalyzed automodification. To be noted: for inhibition effects on PARP15 activity: at concentrations up to 100 μM. Type of test: biochemical.

The test system of test [2] is PARP15. The note with it: read-out: Km of PARP15 for automodification; reported previously; cited from earlier work.

The molecule `Cc1nc2c(c(=O)[nH]1)CSCC2` [DR2313] showed a pIC50 in test [1] (PARP15, 500 nM enzyme, 500 μM NAD+) of 5.1. As to `Oc1cccc2c(O)nccc12` [1,5-Isoquinolinediol, 1,5-isoquinolinediol], in test [1], the IC50 worked out at 8.5 ± 2.7 µM. `CN(C)c1ccc(O)c2c1C[C@H]1C[C@H]3[C@H](N(C)C)C(O)=C(C(N)=O)C(=O)[C@@]3(O)C(O)=C1C2=O` [Minocin]: the “inhibition effects on PARP15 activity” value in test [1] was “no significant inhibition effects”. In the case of `O=c1[nH]c2ccccc2c2ccccc12` [6(5H)-Phenanthridinone, 6(5H)-phenanthridinone], in test [1], the IC50 was 1.5 ± 0.5 µM. `Nc1ncnc2[nH]cnc12` [Adenine, adenine]: in test [1], the “inhibition effects on PARP15 activity” value is on record as “no significant inhibition effects”. With `NC(=O)c1ccc[n+]([C@@H]2O[C@H](COP(=O)([O-])OP(=O)(O)OC[C@H]3O[C@@H](n4cnc5c(N)ncnc54)[C@H](O)[C@@H]3O)[C@@H](O)[C@H]2O)c1` [NAD^+, nicotinamide adenine dinucleotide], the Km in test [2] was 5.8 ± 1.9 µM. Take `Oc1nc(-c2ccc(C(F)(F)F)cc2)nc2c1CSCC2` [XAV939]: the “inhibition effects on PARP15 activity” value in test [1] is given as “no significant inhibition effects”.
